# Assay results as given in patent publication US20220388969A1, “SUBSTITUTED 3,4-DIHYDROQ[…] THE TREATMENT AND PROPHYLAXIS OF HEPATITIS B VIRUS INFECTION” (priority 2019, published 2022).
# Experiments:
# [1] = tested on: HBsAg in HBV-infected primary human hepatocytes; assay: Cryopreserved primary human hepatocytes (PHH) HBV infection assay, extracellular HBsAg; assay type: cell-based; settings: Hepatitis B virus, Hepatocyte, 216 h, read-out: HBsAg IC50
# Procedure: This assay is used to confirm the anti-HBV effect of the compounds in HBV PHH infection assay. Cryopreserved PHH (BioreclamationlVT, Lot YJM) was thawed at 37° C. and gently transferred into pre-warmed InVitroGRO HT medium (BioreclamationIVT, Cat. S03317). The mixture was centrifuged at 70 relative centrifugal force (RCF) for 3 minutes at RT, and the supernatant was discarded. Pre-warmed InVitroGRO CP medium (BioreclamationlVT, Cat# S03316) was added to the cell pellet to gently re-suspend cells. The cells were seeded at the density of 5.8×10^4 cells per well to collagen I coated 96-well plate (Gibco, Cat. A1142803) with the InVitroGRO CP medium. All plates were incubated at 37° C. with 5% CO2 and 85% humidity.
# At 20 hours after plating, the medium was changed to PHH culture medium (Dulbecco's Modified Eagle Medium (DMEM)/F12 (1:1) (Gibco, Cat. 11320-033), 10% fetal bovine serum (Gibco Cat. 10099141), 100 U/mL penicillin, 100 μg/mL streptomycin (Gibco, Cat. 151401-122), 5 ng/mL human epidermal growth factor (Invitrogen Cat. PHG0311L), 20 ng/mL dexamethasone (Sigma, Cat. D4902) and 250 ng/mL human recombinant insulin (Gibco, Cat. 12585-014)). And the cells were incubated at 37° C. with 5% CO2 and 85% humidity for 4 hours. The medium was then changed to pre-warmed PHH culture medium containing 4% polyethylene glycol (PEG) MW8000 (Sigma, Cat. P1458-50ML) and 1% DMSO (Sigma, Cat. D2650). 5.8×10^6 genomic equivalents of HBV were added into the medium.
# At 24 hours post-infection, the cells were gently washed with PBS and refreshed with PHH culture medium supplemented with 1% DMSO, and 0.25 mg/mL Matrix gel (Corning, Cat. 356237) at 200 μL per well. All plates were immediately placed in at 37° C. CO2 incubator.
# 24 hours later, serial dilutions of compounds made with DMSO were further diluted with the same culture medium (PHH culture medium supplemented with 1% DMSO and 0.25 mg/mL Matrix gel as described above) before they were added to the cells to reach desired final compound concentrations and 1% DMSO concentration. The medium containing the compounds were refreshed every three days.
# At 9 days post-compound treatment, extracellular HBsAg level were measured with Chemiluminescence Immuno Assay (CLIA) kit (Autobio, HBsAg Quantitative CLIA).
# HBsAg IC50 values were derived from the dose-response curve using 4 parameter logistic curve fit method. The compounds of formula (I) have HBsAg IC50<20 μM, particularly <1 μM.
# [2] = tested on: HBeAg level in HepDES19 cells (surrogate marker for HBV cccDNA); assay: Engineered HepDES19 primary screen assay (HBeAg as surrogate marker for cccDNA); assay type: cell-based; settings: Hepatitis B virus, 120 h; HepDES19 cells, 5 days incubation with compound, HBeAg ELISA; read-out: IC50 (HBeAg level, HepDES19 primary screen assay)
# Source text: The assay was employed to screen for novel cccDNA inhibitors. HepDES19 is a cccDNA-producing cell line. In this cell line, HBeAg in the cell culture supernatant as surrogate marker, as HBeAg production depends on cccDNA level and activity. HepDES19 is an engineered cell line which contains a 1.1 unit length HBV genome, and pgRNA transcription from the transgene is controlled by Tetracycline (Tet). In the absence of Tet, pgRNA transcription will be induced, but HBV e antigen (HBeAg) could not be produced from this pgRNA due to very short leader sequence before the HBeAg start codon and the start codon is disrupted. Only after cccDNA is formed, the missing leader sequence and start codon mutation would be restored from the 3′-terminal redundancy of pgRNA, and then HBeAg could be synthesized. Therefore, HBeAg could be used as a surrogate marker for cccDNA (Zhou, T. et al., Antiviral Res.(2006), 72(2), 116-124; Guo, H. et al., J. Virol. (2007), 81(22), 12472-12484).
# HepDES19 cells were seeded at 2×10^6 cells per T150 flask and cultured with the culture medium (Dulbecco's Modified Eagle Medium: Nutrient Mixture F-12 [DMEM-F12, Gibco Cat. 11320-82], 10% Fetal Bovine Serum [FBS, Clontech Cat. 631101], 0.1 mM Non-Essential Amino Acids Solution [NEAA, Gibco Cat. 11140-050], 50 μg/mL Penicillin-Streptomycin [PS, Invitrogen Cat. 15140-163], 500 μg/mL Geneticin [G418, Invitrogen Cat. 10131-027]) containing 3 μg/mL Tet (Sigma, Cat. 87128) for 5 days. Cells were then seeded at 4×10^6 cells per T150 in the same culture medium as described above in the absence of Tet for 8 days. Cells were then harvested and frozen at density of 2×10^6 cells per mL. For compound testing, the frozen cells were thawed and seeded into 96-well plates at a density of 6 ×10^4 cells per well. At 24hours after seeding, half log serial dilutions of compounds made with Dimethyl sulfoxide (DMSO, Sigma, Cat. D2650) were further diluted with the same culture medium as described above before they were added to the cells to reach desired final compound concentrations and 1% DMSO concentration. Plates were then incubated at 37° C. for another 5 days before measurement of HBeAg level and cell viability. Intracellular HBeAg level were measured with enzyme-linked immunosorbent assay (ELISA) kit (Shanghai Kehua Diagnostic Medical Products Co., Ltd). Cell viability was assessed using Cell Counting Kit-8 (DonJindo, Cat. CK04-20). IC50 values were derived from the dose-response curve using 4 parameter logistic curve fit method.
# The compounds of the present invention were tested for their capacity to inhibit extracellular HBeAg level as described herein.
Structure (SMILES),IC50 [1],IC50 [2]
"COc1ccc(C2=Nc3c(Cl)cccc3C(C(=O)O)N2)cc1 (stereo not shown) [Example 4, 8-chloro-2-(4-methoxyphenyl)-3,4-dihydroquinazoline-4-carboxylic Acid]",1950 nM,880 nM
"Cc1cc(C2=Nc3c(Cl)cccc3C(C(=O)O)N2)ccc1Br (stereo not shown) [Example 5, 2-(4-bromo-3-methyl-phenyl)-8-chloro-3,4-dihydroquinazoline-4-carboxylic Acid]",4370 nM,560 nM
"O=C(O)C1NC(c2cccc(Br)c2)=Nc2cc(C(F)(F)F)ccc21 (stereo not shown) [Example 6, 2-(3-bromophenyl)-7-(trifluoromethyl)-3,4-dihydroquinazoline-4-carboxylic Acid]",7180 nM,3430 nM
"O=C(O)C1NC(c2ccc(Br)cc2)=Nc2cc(C(F)(F)F)ccc21 (stereo not shown) [Example 7, 2-(4-bromophenyl)-7-(trifluoromethyl)-3,4-dihydroquinazoline-4-carboxylic Acid]",2310 nM,3010 nM
"COC(=O)C1NC(c2ccc(Br)cc2)=Nc2c(Cl)cccc21 (stereo not shown) [Example 12, methyl 2-(4-bromophenyl)-8-chloro-3,4-dihydroquinazoline-4-carboxylate]",1360 nM,330 nM
"NC(=O)C1NC(c2ccc(Br)cc2)=Nc2c(Cl)cccc21 (stereo not shown) [Example 13, 2-(4-bromophenyl)-8-chloro-3,4-dihydroquinazoline-4-carboxamide]",2840 nM,70 nM
"COc1ccc(C2=Nc3c(Cl)cccc3C(C(=O)NCCO)N2)cc1 (stereo not shown) [Example 16, 8-chloro-N-(2-hydroxyethyl)-2-(4-methoxyphenyl)-3,4-dihydroquinazoline-4-carboxamide]",4540 nM,2030 nM
"CC1NC(c2ccc(OCCOC3CC(C(=O)O)C3)cc2)=Nc2cc(C(F)(F)F)ccc21 (stereo not shown) [Example 19, 3-[2-[4-[4-methyl-7-(trifluoromethyl)-3,4-dihydroquinazolin-2-yl]phenoxy]ethoxy]cyclobutanecarboxylic Acid]",7630 nM,4400 nM
"Cc1cc(OCCOC2CC(C(=O)O)C2)ccc1C1=Nc2c(Cl)cccc2C(C)N1 (stereo not shown) [Example 22, 3-[2-[4-(8-chloro-4-methyl-3,4-dihydroquinazolin-2-yl)-3-methyl-phenoxy]ethoxy]cyclobutanecarboxylic Acid]",670 nM,8430 nM
"COC(=O)c1ccc(-c2csc(C3=Nc4c(Cl)cccc4C(C)N3)n2)cc1 (stereo not shown) [Example 32, methyl 4-[2-(8-chloro-4-methyl-3,4-dihydroquinazolin-2-yl)thiazol-4-yl]benzoate]",24 nM,860 nM
"CC(C)C1NC(c2ccc(Br)cc2)=Nc2c(Cl)cccc21 (stereo not shown) [Example 36, 2-(4-bromophenyl)-8-chloro-4-isopropyl-3,4-dihydroquinazoline]",42 nM,6530 nM
